# What was measured:
# [1] = system: FGF2-stimulated cancer cell lines; test: FGF2-stimulated tumor cell proliferation, panel of cancer cell lines; type: cell-based; settings: panel of 16 cell lines; FGF2 2.5 ng/ml; read-out: IC50, FGF2-induced tumor cell proliferation in vitro
# Method: […], GEO, L2987, 786-0, A549, A498, Du145, PANC-1, ACHN, HT1197, CALU6, SKOV3, 769-[…], HCT166 and UMUC3. […] Gene expression profiling was performed on RNA samples from tumor cell lines using AFFYMETRIX® GeneChip System.
# [2] = system: ovarian cancer cell line A2870; test: VEGF-induced proliferation of ovarian cancer cell line A2870; type: cell-based; settings: data not shown
# Method: (§1) Cell proliferation was determined by a modified MTS assay with […] 96® Aqueous One Solution Reagent (Promega, Madison, Wis.). A2780 ovarian cancer cells, MIAPAC-2 pancreatic cancer cells, or GEO colon cancer cells were seeded on 96-well flat-bottomed tissue culture plates (Becton Dickinson, San Jose, Calif.) at a concentration of 3×10^3 cells/well in RPMI 1640 with 1% fetal bovine serum at 37° C. in 5% carbon dioxide/95% air in the presence of 100 units/ml penicillin, 100 μg/ml streptomycin and allowed to adhere to the plate overnight. Then the cells were incubated in the presence of each concentration of 0 (control), 0.3, 0.6, 1.25, 2.5, 5, 10 ng/ml of FGF2 or VEGF for another 72 hours at 37° C. in a humidified atmosphere of 5% CO2 in air. After treatment, 20 μl of […] 96® Aqueous One Solution Reagent was dropped into each well of plates. After 180 minutes incubation, the optical densities (OD) of these samples were directly measured using SPECTRAMAX® plus (Molecular Device, California) and reference wavelength of 490 nm. The OD of control samples was regarded as 100. Each condition was performed with 4 wells and experiment was repeated twice.
# [3] = system: pancreatic cancer cell line MIAPAC-2; test: VEGF-induced proliferation of pancreatic cancer cell line MIAPAC-2; type: cell-based; settings: data not shown
# Method: as §1
# VEGF gene expression = test: VEGF gene expression, AFFYMETRIX human arrays
# [4] = system: A2780 ovarian cancer cells; test: FGF2-induced proliferation of A2780 ovarian cancer cells (modified MTS assay); type: cell-based; settings: A2780 ovarian cancer cells
# Method: as §1
# [5] = system: FGF2 growth factor gene expression; test: FGF2 gene expression, AFFYMETRIX human arrays
# [6] = system: MIAPAC-2 pancreatic cancer cells; test: FGF2-induced proliferation of MIAPAC-2 pancreatic cancer cells (modified MTS assay); type: cell-based; settings: MIAPAC-2 pancreatic cancer cells
# Method: as §1
Compound,IC50 [1] [µM],effect on VEGF-induced cellular proliferation [2],effect on VEGF-induced cellular proliferation [3],modulation of VEGF gene expression levels (VEGF gene expression),effect on FGF2-induced cellular proliferation [4],modulation of FGF2 growth factor gene expression levels [5],effect on FGF2-induced cellular proliferation [6]
"CCN(CC)CCNC(=O)c1c(C)[nH]c(/C=C2\C(=O)Nc3ccc(F)cc32)c1C [sunitinib, reference compound]",~10,,,,,,
bevacizumab [reference compound],,did not show significant sensitivity,did not show significant sensitivity,modulated VEGF gene expression levels,did not show significant sensitivity,did not,did not show significant sensitivity
